Assay results: US9375450B2, “Vaginal tissue rejuvenation compositions and methods” (priority 2011, dated 2016)

Key:
[1] = system: primary vaginal smooth muscle cells; assay: MTT proliferation assay; assay type: cell-based, human; conditions: mean±SD
Experimental: After removal of the uterus, full-thickness samples of the anterior vaginal wall were obtained from the vaginal cuff at the anterior midline portion under sterile condition from four women without POP. Specimens were preserved in cold DMEM/F12 (Invitrogen, Carlsbad, Calif.) supplemented with 10% FBS, 1 mM glutamine, 0.075% Na2HCO3 and 100 ug/ml penicillin-streptomycin. After a maximum time of 4 hours from tissue harvesting the tissue was mechanically minced in cold cultured media and the fragments were washed 3 times in PBS and were plated onto fibronectin coated plastic dishes (Thermo Fischer Scientific, Rochester, N.Y.). After the initial outgrowth, clones with a morphology resembling the smooth muscle phenotype were patch cloned and propagated in culture. For cell characterization a 5000 cell/well fibronectin coated 8-well chamber slide was plated. Once cell confluence reached 80% the cells were washed twice with PBS and fixed in 4% PFA for 30 min at 37° C. To verify the intracytoplasmic distribution of F-actin fibers 4% PFA fixed cells were exposed to a permeabilizing solution of Tryton X100 0.1% and Rhodamine Phalloidin for 45 min at 37° C. Slides were then treated with mounting media (Vectashield, Vector Laboratories, Burlingame, Calif.) containing DAPI for nucleic acid staining and image acquisition was performed in glycerol immersion by confocal microscopy. In addition, the 8-well chamber slides were used to carry out the immunocytochemical staining. After blockage of endogenous peroxidase activity with a solution of hydrogen peroxide and methanol, slides were sequentially treated with the primary mouse antibody, biotinylated anti-mouse immunoglobulin, and Streptavidin-biotin-peroxidase complex (LSAB™+/HRP kit, Dako, Carpinteria, Calif.). Diaminobenzidine was used as a chromogen in the presence of hydrogen peroxide. Slides were then counterstained with hematoxylin. All reactions were carried out at room temperature (22° C.). To identify the SMC, anti-smooth muscle actin antibodies were used (monoclonal mouse, 1:250, 30 min incubation, clone 1A4, catalog #0851 Dako, Carpinteria, Calif.). Caldesmon expression was studied with a monoclonal mouse antibody, 1:100, 30 min incubation, (clone h-CD catalog #M3557 Dako, Carpinteria, Calif.). An antigen retrieval step was used for caldesmon using citrate buffer and a steamer for 30 min. As a negative control normal mouse serum was substituted for the antibody.
To perform the MTT proliferation assay, SMC from the fourth to sixth passages (5,000 cells per well) were cultured in 96-well culture plates (Costar, Cambridge, Mass.), in a total volume of 200 μL DMEM/F-12 with 10% FBS. Cells were incubated with zinc sulfate heptahydrate (Sigma, Saint Louis, Mo.) (10 μM, 20 μM and 50 μM), GW501516 (Alexis, Switzerland) (1 nM, 10 nM, 100 nM) in 96-well plates and cell proliferation was assessed by a 3-[4,5-dimethylthiazol-2-yl]-2,5-diphenyl tetrazoliumbromide (MTT) assay at 24 or 48 hrs utilizing a commercially available MTT assay kit (American Type Culture Collection, Catalog #30-1010K, Manassas, Va.). Treatment and control groups were performed in 6 replicate wells. The relative number of viable cells was determined at 24 or 48 hours by incubating the cells with 1 mg/mL of MTT for 4 hours. The live cells utilized MTT resulting in the accumulation of formazan crystals which were then solubilized with acid isopropanol (90% isopropyl alcohol, 2.5% SDS, 0.004 N HCL) for 1 hour. The optical density of the solution was measured at 570 nm.

[2] = system: ovariectomized (OVX) Sprague-Dawley rats; assay: Macroscopic measurements (genital hiatus, vaginal length) after 2 weeks vaginal suppositories; assay type: in vivo, rat; conditions: vaginal suppositories 2 weeks (20 μM zinc sulfate, 10 nM GW501516, 0.01% estradiol), mean±SD; for genital hiatus (distance between the external urethral meatus and the mid anus): placebo 12.6±1.1; for vaginal length: placebo 14.1±1.1
Experimental: (§1) Ten to 12-weeks old female ovariectomized (OVX) Sprague-Dawley rats were utilized for the experiments. The animals were acclimatized to the environmental conditions before starting the experiment. The animals were housed individually and were allowed free access to water and rodent food. […] The suppositories were prepared according to the fusion method, using a polypeg suppository base ([…]., USA). […] Using a microwave, the suppository base was melted in a small beaker for 3 min and then transferred and kept into a water bath at a temperature of 55° C. The proper amount of above reagent was added to the liquefied base and meticulously crushed with a smooth rounded-end glass rod for about 20 min to make the solution to be even and clear. A pipette tip was used to suck some amount of solution and push it into a plastic tube with a diameter of 3.5 mm, and the tube was immediately left on the flat surface of an ice bucket. The suppository turned to white in color when it was solid. The moulded suppository was then pushed out of the tube using a round rod. […] After 30 min of cooling at room temperature, the suppositories were stored at 4° C. in a closed chamber until use. They were left to reach room temperature before use. The day after the last treatment the rats were overnight fasted and then sacrificed. Macroscopic measurement (genital hiatus, vaginal length) were taken and the vagina was dissected out carefully to avoid any injury to the vagina. The mid section of the vagina was utilized for histology (H and E stain, Masson's trichrome stain) and immunofluorescence and the rest of the vagina was used for RNA extraction and RT-PCR.

[3] = system: ovariectomized (OVX) Sprague-Dawley rats; assay: Vaginal histology and histomorphometry after 2 weeks vaginal suppositories; assay type: in vivo, rat; conditions: vaginal suppositories 2 weeks; for vaginal epithelial thickness / vaginal muscularis thickness / vaginal lamina propria thickness / vaginal thickness (all three layers of the vagina) / lamina propria collagen fiber compactness: mean±SD; for vaginal epithelial thickness: placebo 57±18; for vaginal muscularis thickness: placebo 121±44; for vaginal lamina propria thickness: placebo 179±71; for vaginal thickness (all three layers of the vagina): placebo 358±86; for vaginal epithelial cornification rate: placebo 0%; for lamina propria collagen fiber compactness: scale 0-5 (0=loose, 5=tight), placebo 4.5±0.6
Experimental: as §1, with “RT-PCR. […] For each animal, a 4 μm-thick paraffin section was cut and stained with haematoxylineosin and with Masson's trichrome stain for morphological examination. […] The cornification was determined by the presence of a keratin layer on the vaginal epithelium. Measurements of the different vaginal layers were performed on the fifth segment of the vagina, which is approximately halfway between the middle region and the portio vaginalis uteri. […] Images were captured with a color digital camera and quantified using ImageJ software was used. […] The thickness of the lamina propria was obtained by deducting the thickness of the epithelium and muscularis from total vaginal thickness.” for “RT-PCR.”

SMILES	relative cell number (% of control) ([1]; 10 μM, 48 hrs of culture)	relative cell number (% of control) ([1]; 20 μM, 48 hrs of culture)	relative cell number (% of control) ([1]; 50 μM, 48 hrs of culture)	genital hiatus (distance between the external urethral meatus and the mid anus) [2]	vaginal length [2]	vaginal epithelial thickness [3]	vaginal muscularis thickness [3]	vaginal lamina propria thickness [3]	vaginal thickness (all three layers of the vagina) [3]	vaginal epithelial cornification rate [3]	lamina propria collagen fiber compactness [3]	relative cell number (% of control) ([1]; 1 nM, 24 hrs of culture)	relative cell number (% of control) ([1]; 10 nM, 24 hrs of culture)	relative cell number (% of control) ([1]; 100 nM, 24 hrs of culture)
O.O.O.O.O.O.O.O=S(=O)([O-])[O-].[Zn+2] [zinc sulfate, zinc sulfate heptahydrate]	94.7±4.6 % of control	90.4±5.5 % of control	43.3±30.0 % of control	14.5±2.5 mm	15.6±4.0 mm	79±21 μm	155±58 μm	242±78 μm	477±106 μm	87%	3.5±0.5 relative units			
Cc1cc(SCc2sc(-c3ccc(C(F)(F)F)cc3)nc2C)ccc1OCC(=O)O [GW501516, 2-[2-methyl-4-([4-methyl-2-[4-(trifluoromethyl)phenyl)-1,3-thiazol-5-yl]methylsulfanyl]phenoxy]acetic acid]				14.7±1.1 mm	15.5±1.0 mm	54±23 μm	130±50 μm	192±68 μm	377±98 μm	25%	4.0±0.5 relative units	98.9±10.3 % of control	95.9±6.5 % of control	87.0±10.6 % of control
